Data reported in US11564924B2, “Pharmaceutical composition formed by combining pyridoxamine compound and thiamine compound” (RENASCIENCE CO., LTD., priority 2014, dated 2023).

Legend:
schizophrenia patients = experiment: Total PANSS score in schizophrenia patients given the pyridoxamine compound; type: in vivo, human; conditions: for Change from baseline in total PANSS score, Maximum / Change from baseline in total PANSS score, Median / Change from baseline in total PANSS score, Minimum / Change from baseline in total PANSS score, Mean change: FAS; for Change from baseline in total PANSS score, Mean change: 1200-2400 mg per day oral
From the text: The target subjects (subjects) of this test (administration of a pyridoxamine compound; hereinafter, this is also referred to as “drug administration”) were patients who were diagnosed with schizophrenia and met all of the following conditions (1) to (3):
Drug administration was initiated for nine subjects from whom consent was obtained. The observation period was defined as the period from the day on which consent was obtained (Day −14) to the day 2 weeks after the day of consent (Day 0), and the initial day of drug administration was defined as Day 1. The data of Day 1 is data immediately before the start of administration of the pyridoxamine compound. The drug administration period was defined as the 24-week period from the start of drug administration (Day 1 to Day 169).
In the drug administration, pyridoxamine dihydrochloride was used as the pyridoxamine compound and orally administered in an amount of 1200 mg, 1800 mg, or 2400 mg per day (administered three times a day, morning, noon, and before bedtime, in an amount of 400 mg, 600 mg, or 800 mg each time). In the drug administration period, the dose was increased or decreased within the above range according to the condition of each patient.
The effect of administration of the pyridoxamine compound (drug administration) was evaluated according to the Positive and Negative Syndrome Scale (PANSS) score and the concentration of pentosidine in blood of the schizophrenia patients.
The PANSS score was determined by SCI-PANSS, which uses a structured interview, according to the Positive and Negative Syndrome Scale (PANSS) manual (translated by Hiroshi Yamada, Kanji Masui, and Hirotsugu Kikumoto; Tokyo: Seiwa Shoten Co., Ltd., 1991). An interview for evaluation was conducted for 30 evaluation items. Each item was scored on a scale of 1 to 7. The sum of the scores was calculated, and the difference between the PANSS score on Day 1 and the PANSS score on each test day was determined. […] The subjects were prohibited from taking hypnotic drugs or antianxiety drugs within 4 hours before PANSS evaluation.

[1] = Blood kinetics of pyridoxamine compound in people with reduced renal function; type: in vivo, human; conditions: 150 mg pyridoxamine dihydrochloride oral
Description: As described in Experiment Example 1 above, administration of a pyridoxamine compound increases not only the blood pyridoxamine concentration, but also the blood pyridoxal concentration. Rather, in blood, the pyridoxal concentration was higher than the pyridoxamine concentration. Thus, changes in the serum concentrations of pyridoxamine, pyridoxal, pyridoxine, and 4-pyridoxic acid after administration of a pyridoxamine compound were observed over time.
More specifically, 150 mg of pyridoxamine dihydrochloride was orally administered to each of six people with reduced renal function (subjects) (average age: 56 years old, average body weight: 67 kg). Blood was collected 0.5, 1, 1.5, 2, 2.5, 3, 4, 5, 6, 8, 10, and 12 hours after the administration, and the serums were collected. Measurement of the serum concentrations of pyridoxamine, pyridoxal, pyridoxine, and 4-pyridoxic acid was outsourced to Shin Nippon Biomedical Laboratories, Ltd.

[2] = tested on: vitamin B1 in human whole blood; experiment: In vitro effect on vitamin B1 concentration in human whole blood; conditions: human whole blood, 5, 50, 500 μg/mL, 37° C.
From the text: In addition, as described in Experiment Example 1 and Experiment Example 2, administration of a pyridoxamine compound increases not only the serum pyridoxamine concentration, but also the serum pyridoxal concentration, and thus, pyridoxamine and pyridoxal were both used as test substances for the investigation.
Blood was collected from a human using EDTA⋅2K as an anticoagulant. In addition, pyridoxamine dihydrochloride (Sigma-Aldrich Japan) was used as pyridoxamine, and pyridoxal hydrochloride (Nacalai Tesque, Inc.) was used as pyridoxal. They were dissolved at 0.5, 5, and 50 mg/mL in physiological saline to prepare test solutions. 10 μL of each test solution was individually added per mL of the whole blood collected above (test samples). The final concentrations of each test substance in the test samples were 5, 50, 500 μg/mL. Further, a vehicle was prepared by adding 10 μl of physiological saline to 1 ml of the whole blood. The vehicle and the test samples were incubated at 37° C. for 1 hour or 16 hours and then immediately frozen. Measurement of the vitamin B1 concentrations in the whole blood before the start of the incubation to which neither the physiological saline nor any test solution was added (baseline: indicated by “BL” in FIG. 4), and in the vehicle and in each test sample after the incubation, was outsourced to SRL Inc., and the measurement was performed using LC/MS/MS.

## Cc1ncc(CO)c(CN)c1O.Cl.Cl [pyridoxamine dihydrochloride]
Schizophrenia patients; Day 15 (2 w)
  Change from baseline in total PANSS score, Maximum: 12
  Change from baseline in total PANSS score, Median: 3.0
  Change from baseline in total PANSS score, Minimum: −44
  Change from baseline in total PANSS score, Mean change: −3.7
Schizophrenia patients; Day 29 (4 w)
  Change from baseline in total PANSS score, Maximum: 10
  Change from baseline in total PANSS score, Median: 1.0
  Change from baseline in total PANSS score, Minimum: −49
  Change from baseline in total PANSS score, Mean change: −4.4
Schizophrenia patients; Day 57 (8 w)
  Change from baseline in total PANSS score, Maximum: 13
  Change from baseline in total PANSS score, Median: 1.0
  Change from baseline in total PANSS score, Minimum: −58
  Change from baseline in total PANSS score, Mean change: −5.0
Schizophrenia patients; Day 85 (12 w)
  Change from baseline in total PANSS score, Maximum: 21
  Change from baseline in total PANSS score, Median: −3.0
  Change from baseline in total PANSS score, Minimum: −65
  Change from baseline in total PANSS score, Mean change: −7.3
Schizophrenia patients; Day 113 (16 w)
  Change from baseline in total PANSS score, Maximum: 8
  Change from baseline in total PANSS score, Median: −5.0
  Change from baseline in total PANSS score, Minimum: −69
  Change from baseline in total PANSS score, Mean change: −12.2
Schizophrenia patients; Day 141 (20 w)
  Change from baseline in total PANSS score, Maximum: 17
  Change from baseline in total PANSS score, Median: −1.5
  Change from baseline in total PANSS score, Minimum: −64
  Change from baseline in total PANSS score, Mean change: −9.6
Schizophrenia patients; Day 169 (24 w)
  Change from baseline in total PANSS score, Maximum: 14
  Change from baseline in total PANSS score, Median: −7.5
  Change from baseline in total PANSS score, Minimum: −69
  Change from baseline in total PANSS score, Mean change: −11.4
Schizophrenia patients; Final evaluation time point
  Change from baseline in total PANSS score, Maximum: 14
  Change from baseline in total PANSS score, Median: −5.0
  Change from baseline in total PANSS score, Minimum: −69
  Change from baseline in total PANSS score, Mean change: −10.6
Schizophrenia patients; day 15 after the start of drug administration (Day 15)
  PANSS score decreased by an average of: 3.7 points
Schizophrenia patients; day 113 after the start of drug administration (Day 113)
  PANSS score decreased by an average of: 12.2 points
Schizophrenia patients; schizophrenia patients, 24-week administration
  effect on the symptom of schizophrenia: effective in improving the symptom of schizophrenia
[1]; serum up to 12 hours
  change in the concentration of pyridoxine (PN): No large change
[1]; six people with reduced renal function
  time after administration at which the serum concentration of pyridoxamine (unchanged form) peaked: 2 h
[2]; 1 hour incubation
  change in whole blood vitamin B1 concentration: no changes
[2]; 16 hours incubation
  change in whole blood vitamin B1 concentration: decrease was similar to that in the vehicle
